From patent US4849335A, “Method for detecting the mutagenicity of substances susceptible of inducing the deterioration of cellular DNA, utilizing the production of an SOS response” (priority 1982, dated 1989)

Key:
Assay type in all cases: cell-based, E. coli strain PQ37
[1] = test system: sfiA::operon lacZ recombinant; settings: FIG. 1 curve c; measured 2 hours after the start of the experiment; inhibitory concentrations
Description: FIGS. 2 and 3 contain the curves representing the variations of the logarithm of the abovesaid ratio, named below SOSIF (abbreviation of "SOS induction factor"), measurable in similar cultures, in the presence of different genotoxic substances, according to their respective concentrations in the culture media, in nanomoles per specimen tested.
(§1) The micro-organism employed in the tests whose description follows is a transformed E. coli strain, named PQ37, deposited in the National Collection of Culture Micro-Organisms (C.N.C.M.) of the Pasteur Institute of Paris, under no. I-205 on the date of Sept. 24, 1982. The genetic characteristics of this micro-organism are as follows: F^- thr leu his-4 pyrD thi galE galK or T lacΔUI69 srl 300::Tn10 rpoB rpsL uvrA rfa trp::Muc^+ sfiA::Mud(AP, lac)c-Ts. It is constitutive for the synthesis of the alkaline phosphatase (Pho^c). […]
A culture of the abovesaid micro-organism previously developed up to the exponential phase in LB culture medium (Bacto tryptone 10 g, Bacto yeast extract 5 g, NaC1 10 g, water Q.S.P. 1 1), also containing ampicillin, is diluted ten times either in fresh medium, or in the activation mixture described by AMES B.N. and Coll. […] After two hours incubation at 37° C. with shaking, the β-galoactosidase and alkaline phosphatase activities were determined. […]

[2] = test system: β-galactosidase; assay: β-galactosidase activity in E. coli PQ37 culture; settings: FIG. 1 curve a; beyond a certain concentration of genotoxic substance; 2 hours
Description: The micro-organism employed in the tests whose description follows is a transformed E. coli strain, named PQ37, deposited in the National Collection of Culture Micro-Organisms (C.N.C.M.) of the Pasteur Institute of Paris, under no. I-205 on the date of Sept. 24, 1982. The genetic characteristics of this micro-organism are as follows: F^- thr leu his-4 pyrD thi galE galK or T lacΔUI69 srl 300::Tn10 rpoB rpsL uvrA rfa trp::Muc^+ sfiA::Mud(AP, lac)c-Ts. It is constitutive for the synthesis of the alkaline phosphatase (Pho^c).
This strain has been obtained by genetic recombinations suitable to confer on it the above-indicated genotype, from the strain containing the recombinant sfiA::lacZ deposited at the C.N.C.M., under no. I-152 Apr. 13, 1981.
A culture of the abovesaid micro-organism previously developed up to the exponential phase in LB culture medium (Bacto tryptone 10 g, Bacto yeast extract 5 g, NaC1 10 g, water Q.S.P. 1 1), also containing ampicillin, is diluted ten times either in fresh medium, or in the activation mixture described by AMES B.N. and Coll. (1975), "Mutation Research" 31, 347-364. Aliquot parts of 0.6 ml are distributed in glass test tubes each containing a certain dose of the substance under test. After two hours incubation at 37° C. with shaking, the β-galoactosidase and alkaline phosphatase activities were determined. […]

[3] = test system: alkaline phosphatase; assay: alkaline phosphatase activity in E. coli PQ37 culture; settings: FIG. 1 curve b; beyond a certain concentration of genotoxic substance; 2 hours
Description: as §1
A culture of the abovesaid micro-organism previously developed up to the exponential phase in LB culture medium (Bacto tryptone 10 g, Bacto yeast extract 5 g, NaC1 10 g, water Q.S.P. 1 1), also containing ampicillin, is diluted ten times either in fresh medium, or in the activation mixture described by AMES B.N. and Coll. […] After two hours incubation at 37° C. with shaking, the β-galoactosidase and alkaline phosphatase activities were determined.
It is possible in particular to carry out the determination of the alkaline phosphatase under the following condition: 2.7 ml of T buffer (solution of 121 g of Tris (hydroxy-methyl)-aminomethane per liter, whose pH has been adjusted to 8.8 with HC1) were added to 0.3 ml of the cell culture. […] 5 minutes later, 1 ml of 2 N Tris is added to restore the color, which is measured in the spectrophotometer at 420 nm. […]

Q: What does the source list for `O=[N+]([O-])c1cc[n+]([O-])c2ccccc12` [4NQO, 4-nitroquinoline-1-oxide]?
A: SOSIF ratio at concentrations of the genotoxic substance which inhibit the synthesis of the proteins [1]: remains substantially constant; β-galactosidase activity (inhibiting effect of the synthesis of the proteins) [2]: reduction; alkaline phosphatase activity (inhibiting effect of the synthesis of the proteins) [3]: reduction
